Common to all, as to test: Bliss interaction score (quartile over a dose matrix) (fitness difference); higher = more antagonism (negative = synergy)
One assay concerns S. pneumoniae D39V. In a few lines:
(§1)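 Growth was read as OD595 when cultures entered stationary phase, and each value was divided by the plate's robust no-drug mean and capped at 1. This normalised ratio is the fitness value, and fitness for each single drug came from the combination data. The Bliss score subtracts the expected fitness, taken as the product, from the observed fitness and is given as quartiles across technical, biological and donor/recipient replicates.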

For a further assay, the system named is S. aureus DSM 20231. The method in brief: as §1
Another assay concerns S. aureus Newman. The method in brief: as §1
The next assay concerns B. subtilis 168. The method in brief: as §1
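Further: first quartile when negative (synergy) and third quartile when positive (antagonism).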

For `CN[C@H](CC(C)C)C(=O)N[C@H]1C(=O)N[C@@H](CC(N)=O)C(=O)N[C@H]2C(=O)N[C@H]3C(=O)N[C@H](C(=O)N[C@H](C(=O)O)c4cc(O)cc(O)c4-c4cc3ccc4O)[C@H](O[C@H]3C[C@](C)(N)[C@@H](O)[C@H](C)O3)c3ccc(c(Cl)c3)Oc3cc2cc(c3O[C@@H]2O[C@H](CO)[C@@H](O)[C@H](O)[C@H]2O[C@H]2C[C@](C)(NCc3ccc(-c4ccc(Cl)cc4)cc3)[C@@H](O)[C@H](C)O2)Oc2ccc(cc2Cl)[C@H]1O` [Oritavancin] + CN[C@@H]1[C@H](O[C@H]2[C@H](O[C@H]3[C@H](O)[C@@H](O)[C@H](N=C(N)N)[C@@H](O)[C@@H]3N=C(N)N)O[C@@H](C)[C@]2(O)C=O)O[C@@H](CO)[C@H](O)[C@H]1O [Streptomycin], the Bliss interaction score in the assay with S. pneumoniae D39V is 0.0462; with S. aureus DSM 20231 it was -0.111; in the assay with S. aureus Newman, -0.138; with B. subtilis 168, -0.0219.
Taken in the same sequence, the figures for `CN[C@H](CC(C)C)C(=O)N[C@H]1C(=O)N[C@@H](CC(N)=O)C(=O)N[C@H]2C(=O)N[C@H]3C(=O)N[C@H](C(=O)N[C@H](C(=O)O)c4cc(O)cc(O)c4-c4cc3ccc4O)[C@H](O[C@H]3C[C@](C)(N)[C@@H](O)[C@H](C)O3)c3ccc(c(Cl)c3)Oc3cc2cc(c3O[C@@H]2O[C@H](CO)[C@@H](O)[C@H](O)[C@H]2O[C@H]2C[C@](C)(NCc3ccc(-c4ccc(Cl)cc4)cc3)[C@@H](O)[C@H](C)O2)Oc2ccc(cc2Cl)[C@H]1O` [Oritavancin] + CN[C@H](CC(C)C)C(=O)N[C@H]1C(=O)N[C@@H](CC(N)=O)C(=O)N[C@H]2C(=O)N[C@H]3C(=O)N[C@H](C(=O)N[C@H](C(=O)O)c4cc(O)cc(O)c4-c4cc3ccc4O)[C@H](O)c3ccc(c(Cl)c3)Oc3cc2cc(c3O[C@@H]2O[C@H](CO)[C@@H](O)[C@H](O)[C@H]2O[C@H]2C[C@](C)(N)[C@H](O)[C@H](C)O2)Oc2ccc(cc2Cl)[C@H]1O [Vancomycin] were 0.105, -0.0879, -0.0787 and 0.0254.
The matching figures for `CN[C@H](CC(C)C)C(=O)N[C@H]1C(=O)N[C@@H](CC(N)=O)C(=O)N[C@H]2C(=O)N[C@H]3C(=O)N[C@H](C(=O)N[C@H](C(=O)O)c4cc(O)cc(O)c4-c4cc3ccc4O)[C@H](O[C@H]3C[C@](C)(N)[C@@H](O)[C@H](C)O3)c3ccc(c(Cl)c3)Oc3cc2cc(c3O[C@@H]2O[C@H](CO)[C@@H](O)[C@H](O)[C@H]2O[C@H]2C[C@](C)(NCc3ccc(-c4ccc(Cl)cc4)cc3)[C@@H](O)[C@H](C)O2)Oc2ccc(cc2Cl)[C@H]1O` [Oritavancin] + CO[C@H]1/C=C/O[C@@]2(C)Oc3c(C)c(O)c4c(O)c(c(/C=N/N5CCN(C)CC5)c(O)c4c3C2=O)NC(=O)/C(C)=C\C=C\[C@H](C)[C@H](O)[C@@H](C)[C@@H](O)[C@@H](C)[C@H](OC(C)=O)[C@@H]1C [Rifampicin]: 0.106, -0.0199, 0.0357 and -0.0184.
The matching figures for `CN[C@H](CC(C)C)C(=O)N[C@H]1C(=O)N[C@@H](CC(N)=O)C(=O)N[C@H]2C(=O)N[C@H]3C(=O)N[C@H](C(=O)N[C@H](C(=O)O)c4cc(O)cc(O)c4-c4cc3ccc4O)[C@H](O[C@H]3C[C@](C)(N)[C@@H](O)[C@H](C)O3)c3ccc(c(Cl)c3)Oc3cc2cc(c3O[C@@H]2O[C@H](CO)[C@@H](O)[C@H](O)[C@H]2O[C@H]2C[C@](C)(NCc3ccc(-c4ccc(Cl)cc4)cc3)[C@@H](O)[C@H](C)O2)Oc2ccc(cc2Cl)[C@H]1O` [Oritavancin] + COc1cc(Cc2cnc(N)nc2N)cc(OC)c1OC [Trimethoprim]: 0.078, -0.0406, -0.111 and 0.0391.
Consider `CN[C@H](CC(C)C)C(=O)N[C@H]1C(=O)N[C@@H](CC(N)=O)C(=O)N[C@H]2C(=O)N[C@H]3C(=O)N[C@H](C(=O)N[C@H](C(=O)O)c4cc(O)cc(O)c4-c4cc3ccc4O)[C@H](O[C@H]3C[C@](C)(N)[C@@H](O)[C@H](C)O3)c3ccc(c(Cl)c3)Oc3cc2cc(c3O[C@@H]2O[C@H](CO)[C@@H](O)[C@H](O)[C@H]2O[C@H]2C[C@](C)(NCc3ccc(-c4ccc(Cl)cc4)cc3)[C@@H](O)[C@H](C)O2)Oc2ccc(cc2Cl)[C@H]1O` [Oritavancin] + COc1ccc(C[C@H](N)C(=O)N[C@H]2[C@@H](O)[C@H](n3cnc4c(N(C)C)ncnc43)O[C@@H]2CO)cc1 [Puromycin], for which the Bliss interaction score in the assay on S. pneumoniae D39V is 0.0762; in the assay with S. aureus DSM 20231, -0.0699; in the assay on S. aureus Newman it was -0.0754; in the assay on B. subtilis 168 it was 0.0232.
Taken in the same sequence, the figures for `CN[C@H](CC(C)C)C(=O)N[C@H]1C(=O)N[C@@H](CC(N)=O)C(=O)N[C@H]2C(=O)N[C@H]3C(=O)N[C@H](C(=O)N[C@H](C(=O)O)c4cc(O)cc(O)c4-c4cc3ccc4O)[C@H](O[C@H]3C[C@](C)(N)[C@@H](O)[C@H](C)O3)c3ccc(c(Cl)c3)Oc3cc2cc(c3O[C@@H]2O[C@H](CO)[C@@H](O)[C@H](O)[C@H]2O[C@H]2C[C@](C)(NCc3ccc(-c4ccc(Cl)cc4)cc3)[C@@H](O)[C@H](C)O2)Oc2ccc(cc2Cl)[C@H]1O` [Oritavancin] + C[n+]1ccc(-c2cc[n+](C)cc2)cc1 [Paraquat] were -0.044, -0.0738, -0.065 and -0.0221.
Regarding `CN[C@H](CC(C)C)C(=O)N[C@H]1C(=O)N[C@@H](CC(N)=O)C(=O)N[C@H]2C(=O)N[C@H]3C(=O)N[C@H](C(=O)N[C@H](C(=O)O)c4cc(O)cc(O)c4-c4cc3ccc4O)[C@H](O[C@H]3C[C@](C)(N)[C@@H](O)[C@H](C)O3)c3ccc(c(Cl)c3)Oc3cc2cc(c3O[C@@H]2O[C@H](CO)[C@@H](O)[C@H](O)[C@H]2O[C@H]2C[C@](C)(NCc3ccc(-c4ccc(Cl)cc4)cc3)[C@@H](O)[C@H](C)O2)Oc2ccc(cc2Cl)[C@H]1O` [Oritavancin] + Cc1cc(NS(=O)(=O)c2ccc(N)cc2)no1 [Sulfamethoxazol], the Bliss interaction score with S. pneumoniae D39V is -0.0491; in the assay with S. aureus DSM 20231 it was -0.0575; in the assay with S. aureus Newman, 0.0801; with B. subtilis 168, -0.0377.
The matching figures for `CN[C@H](CC(C)C)C(=O)N[C@H]1C(=O)N[C@@H](CC(N)=O)C(=O)N[C@H]2C(=O)N[C@H]3C(=O)N[C@H](C(=O)N[C@H](C(=O)O)c4cc(O)cc(O)c4-c4cc3ccc4O)[C@H](O[C@H]3C[C@](C)(N)[C@@H](O)[C@H](C)O3)c3ccc(c(Cl)c3)Oc3cc2cc(c3O[C@@H]2O[C@H](CO)[C@@H](O)[C@H](O)[C@H]2O[C@H]2C[C@](C)(NCc3ccc(-c4ccc(Cl)cc4)cc3)[C@@H](O)[C@H](C)O2)Oc2ccc(cc2Cl)[C@H]1O` [Oritavancin] + Cc1onc(-c2ccccc2)c1C(=O)N[C@@H]1C(=O)N2[C@@H]1SC(C)(C)[C@@H]2C(=O)O [Oxacillin]: -0.167, -0.0461, -0.0656 and 0.0256.
The matching figures for `CN[C@H](CC(C)C)C(=O)N[C@H]1C(=O)N[C@@H](CC(N)=O)C(=O)N[C@H]2C(=O)N[C@H]3C(=O)N[C@H](C(=O)N[C@H](C(=O)O)c4cc(O)cc(O)c4-c4cc3ccc4O)[C@H](O[C@H]3C[C@](C)(N)[C@@H](O)[C@H](C)O3)c3ccc(c(Cl)c3)Oc3cc2cc(c3O[C@@H]2O[C@H](CO)[C@@H](O)[C@H](O)[C@H]2O[C@H]2C[C@](C)(NCc3ccc(-c4ccc(Cl)cc4)cc3)[C@@H](O)[C@H](C)O2)Oc2ccc(cc2Cl)[C@H]1O` [Oritavancin] + Cn1nnc(-c2ccc(-c3ccc(N4C[C@H](CO)OC4=O)cc3F)cn2)n1 [Tedizolid]: -0.0205, -0.0541, -0.0895 and -0.0251.
Taken in the same sequence, the figures for `CN[C@H](CC(C)C)C(=O)N[C@H]1C(=O)N[C@@H](CC(N)=O)C(=O)N[C@H]2C(=O)N[C@H]3C(=O)N[C@H](C(=O)N[C@H](C(=O)O)c4cc(O)cc(O)c4-c4cc3ccc4O)[C@H](O[C@H]3C[C@](C)(N)[C@@H](O)[C@H](C)O3)c3ccc(c(Cl)c3)Oc3cc2cc(c3O[C@@H]2O[C@H](CO)[C@@H](O)[C@H](O)[C@H]2O[C@H]2C[C@](C)(NCc3ccc(-c4ccc(Cl)cc4)cc3)[C@@H](O)[C@H](C)O2)Oc2ccc(cc2Cl)[C@H]1O` [Oritavancin] + Oc1cc(Cl)ccc1Oc1ccc(Cl)cc1Cl [Triclosan] were 0.102, 0.108, -0.0473 and 0.0201.
For the compound `CO[C@H]1/C=C/O[C@@]2(C)Oc3c(C)c(O)c4c(O)c(c(/C=N/N5CCN(C)CC5)c(O)c4c3C2=O)NC(=O)/C(C)=C\C=C\[C@H](C)[C@H](O)[C@@H](C)[C@@H](O)[C@@H](C)[C@H](OC(C)=O)[C@@H]1C` [Rifampicin] + CCCCCCCCCC(=O)N[C@@H]1[C@H]([C@@H]([C@H](O[C@H]1OC2=C3C=C4C=C2OC5=C(C=C(C=C5)[C@H]([C@H]6C(=O)N[C@@H](C7=C(C(=CC(=C7)O)OC8[C@H]([C@H]([C@@H]([C@H](O8)CO)O)O)O)C9=C(C=CC(=C9)[C@H](C(=O)N6)NC(=O)[C@@H]4NC(=O)[C@@H]1C2=CC(=CC(=C2)OC2=C(C=CC(=C2)[C@H](C(=O)N[C@H](CC2=CC(=C(O3)C=C2)Cl)C(=O)N1)N)O)O)O)C(=O)O)O[C@H]1[C@@H]([C@H]([C@@H]([C@H](O1)CO)O)O)NC(=O)C)Cl)CO)O)O [Teicoplanin], the Bliss interaction score with S. pneumoniae D39V (main component drawn) is 0.0769; with S. aureus DSM 20231 (main component drawn) it was -0.0357; in the assay with S. aureus Newman (main component drawn), -0.0536; in the assay with B. subtilis 168 (main component drawn), 0.176.
`CO[C@H]1/C=C/O[C@@]2(C)Oc3c(C)c(O)c4c(O)c(c(/C=N/N5CCN(C)CC5)c(O)c4c3C2=O)NC(=O)/C(C)=C\C=C\[C@H](C)[C@H](O)[C@@H](C)[C@@H](O)[C@@H](C)[C@H](OC(C)=O)[C@@H]1C` [Rifampicin] + CC[C@H]1OC(=O)[C@H](C)C(=O)[C@H](C)[C@@H](O[C@@H]2O[C@H](C)C[C@H](N(C)C)[C@H]2O)[C@](C)(OC)C[C@@H](C)C(=O)[C@H](C)[C@H]2N(CCCCn3cnc(-c4cccnc4)c3)C(=O)O[C@]12C [Telithromycin]: the Bliss interaction score is -0.157 with S. pneumoniae D39V, 0.0559 in the assay with S. aureus DSM 20231, 0.0171 in the assay on S. aureus Newman and 0.0808 in the assay with B. subtilis 168.
Turning to `CO[C@H]1/C=C/O[C@@]2(C)Oc3c(C)c(O)c4c(O)c(c(/C=N/N5CCN(C)CC5)c(O)c4c3C2=O)NC(=O)/C(C)=C\C=C\[C@H](C)[C@H](O)[C@@H](C)[C@@H](O)[C@@H](C)[C@H](OC(C)=O)[C@@H]1C` [Rifampicin] + COc1cc(Cc2cnc(N)nc2N)cc(OC)c1OC [Trimethoprim], the Bliss interaction score in the assay on S. pneumoniae D39V was 0.0931; in the assay on S. aureus DSM 20231, -0.0578; in the assay on S. aureus Newman, -0.0473; in the assay on B. subtilis 168, 0.131.
On to `CO[C@H]1/C=C/O[C@@]2(C)Oc3c(C)c(O)c4c(O)c(c(/C=N/N5CCN(C)CC5)c(O)c4c3C2=O)NC(=O)/C(C)=C\C=C\[C@H](C)[C@H](O)[C@@H](C)[C@@H](O)[C@@H](C)[C@H](OC(C)=O)[C@@H]1C` [Rifampicin] + Oc1cc(Cl)ccc1Oc1ccc(Cl)cc1Cl [Triclosan], for which the Bliss interaction score in the assay with S. pneumoniae D39V was -0.0563; in the assay with S. aureus DSM 20231 it was -0.0595; in the assay with S. aureus Newman, 0.0206; in the assay with B. subtilis 168, 0.0445.
The matching figures for `CN[C@@H]1[C@H](O)[C@H](NC)[C@H]2O[C@@]3(O)C(=O)C[C@@H](C)O[C@H]3O[C@@H]2[C@H]1O` [Spectinomycin] + CC[C@H]1OC(=O)[C@H](C)C(=O)[C@H](C)[C@@H](O[C@@H]2O[C@H](C)C[C@H](N(C)C)[C@H]2O)[C@](C)(OC)C[C@@H](C)C(=O)[C@H](C)[C@H]2N(CCCCn3cnc(-c4cccnc4)c3)C(=O)O[C@]12C [Telithromycin]: -0.14, -0.0419, -0.0947 and 0.038.
The matching figures for `CN[C@@H]1[C@H](O)[C@H](NC)[C@H]2O[C@@]3(O)C(=O)C[C@@H](C)O[C@H]3O[C@@H]2[C@H]1O` [Spectinomycin] + Cc1cc(NS(=O)(=O)c2ccc(N)cc2)no1 [Sulfamethoxazol]: -0.0374, -0.0866, 0.0687 and -0.0406.

The values are drawn from the supplement of paper PMC10627819.
